“Also recorded” adds a separate entry of the source.
How the values were obtained:
Assay type in all cases: in vivo, rat
[1] = Head trunk length and femur length, growing healthy rats; details: age of 12 weeks, vs. Ct1 group
Procedure: (§1) 6-week-old growing male F344 rats were used.
(§2) (2) Experimental Groups (n=10 in Each Group) (i) Control group (hereinafter, referred to as “Ct1 group”) (ii) Anti-Siglec-15 antibody administration group (hereinafter, referred to as “Sig-15 Ab administration group”): The #32A1 antibody was used as an anti-Siglec-15 antibody. The anti-Siglec-15 antibody was subcutaneously administered once every 3 weeks at a dosage of 0.25, 1 or 4 mg/kg.
(§3) 6 weeks after the start of administration (age of 6 weeks to age of 12 weeks). After the end of the period (age of 12 weeks), the animals were euthanized, and evaluation was performed.
(§4) The head trunk length was measured 0, 3 and 6 weeks after administration. The body weight was measured once a week.
(§5) The femur length was measured under anesthesia every 3 weeks by micro-CT imaging.
(§6) Micro-CT imaging of the femur, the tibia and the fifth lumber vertebra was performed, and the right femur major axis length was measured.

[2] = Bone mass (micro-CT) and bone mineral density (DXA), growing healthy rats; details: for BMD value (DXA) / trabecular bone mass (3D-CT): vs. Ct1 group
Procedure: as §1, §2, §3, §6
BMD measurement of the lumber vertebra (first to third lumber vertebrae) and the left distal femur end was performed by dual energy X-ray absorptiometric (DXA) method using a bone mineral density measuring apparatus (manufactured by Hitachi Aloka Medical, Ltd.).

serum TRACP-5b [3] = assay: Bone resorption marker (serum TRACP-5b) by ELISA, growing healthy rats; details: age of 12 weeks
Procedure: as §1, §2, §3
(§7) Before the start of administration, and 6 weeks after administration and before euthanasia, blood was collected from the tail vein, and the values of a bone formation marker (serum osteocalcin) and a bone resorption marker (serum TRACP-5b) were measured by an ELISA method.

[4] = Body weight, head trunk length and femur length, pediatric steroid-induced osteoporosis model rats; details: GC model rats
Procedure: (§8) 6-week-old growing female LEW/Cr1Crlj rats were used.
(§9) On the other hand, a steroid-induced osteoporosis model with rats has not been established. Thus, in this Example, a model rat with Prednisolone 25 mg/pellet/60 days implanted under the skin of a 6-week-old female LEW/Cr1Crlj rat was employed as a pediatric steroid-induced osteoporosis model. In this model, it was confirmed that 2, 4 and 6 weeks after implantation of prednisolone, the femur BMD decreased, and the maximum stress of each of the femur and the lumber vertebra decreased.
(§10) (3) Experimental Group (n=10 in Each Group) (i) Sham group: Sham-operation+Vehicle (PBS) (subcutaneous administration) (ii) GC group: Prednisolone (PSL) pellet 25 mg/pellet/60 days-subcutaneous implantation (GC)+Vehicle (PBS) (subcutaneous administration) (iii) GC+Siglec-15Ab group: GC treatment was performed, and an anti-Siglec-15 antibody was subcutaneously administered once every 3 weeks at a dosage of 1 mg/kg (low dosage) or at a dosage of 10 mg/kg (high dosage). The #32A1 antibody was used as the anti-Siglec-15 antibody.
as §3, §4, §5
(§11) Micro-CT imaging of the femur and the tibia was performed, and the right femur length was measured.

[5] = Bone mass (micro-CT, bone microstructure analysis) and BMD (DXA) of the distal femur, pediatric steroid-induced osteoporosis model rats; details: GC model rats, age of 12 weeks
Procedure: (3) Experimental Group (n=10 in Each Group) (i) Sham group: Sham-operation+Vehicle (PBS) (subcutaneous administration) (ii) GC group: Prednisolone (PSL) pellet 25 mg/pellet/60 days-subcutaneous implantation (GC)+Vehicle (PBS) (subcutaneous administration) (iii) GC+Siglec-15Ab group: GC treatment was performed, and an anti-Siglec-15 antibody was subcutaneously administered once every 3 weeks at a dosage of 1 mg/kg (low dosage) or at a dosage of 10 mg/kg (high dosage). […] (iv) GC+ALN group: GC treatment was performed, and ALN was subcutaneously administered twice a week at a dosage of 0.014 mg/kg (low dosage) or at a dosage of 0.140 mg/kg (high dosage).
BMD and BMC measurements of the lumber vertebra and the distal left femur were performed by a DXA method using a bone densitometer (manufactured by Hitachi Medical, Ltd.).

osteoclasts [6] = assay: TRACP staining of osteoclasts, growing healthy rats; details: age of 12 weeks, vs. Ct1 group
Procedure: as §1, §2, §3
(§12) Decalcified tissue sample: knee joint disarticulation was performed, and samples of a coronal section tissue of the proximal tibia (proximal right knee tibia ½) and a fifth lumber vertebra coronal section tissue were prepared.
(§13) Osteoclastic cells were detected and evaluated by chemical staining with tartrate-resistant acid phosphatase (TRACP) (hereinafter, referred to as “TRACP staining”) and counter staining with methyl green. The growth cartilage part was detected and evaluated by safranine O staining (staining of acidic mucopolysaccharide).

[7] = test system: growth cartilage and primary spongiosa region; assay: Micro-CT and histological evaluation of growth at the proximal tibia, growing healthy rats
Procedure: as §1, §2, §3
For bone labeling, calcein was administered 7 days before and 3 days before euthanasia (at an interval of 4 days). The calcein was dissolved in a 1.4% sodium bicarbonate solution at a concentration of 10 mg/ml, and subcutaneously injected to each animal at a dosage of 10 mg/kg.
as §6
Non-decalcified hard tissue sample: a coronal section tissue of proximal left tibia ½ (length: about 1.5 cm) was used. The tissue was immersed and fixed in 70% ethanol, and then stored in a cool and dark place. The resulting non-decalcified hard tissue sample was used for Villanueva staining, bright-field observation and fluorescent observation, and quantitative bone morphometry.
as §12
With the non-decalcified hard tissue sample and the decalcified tissue sample, the growth cartilage plate width and the longitudinal growth rate were histologically measured to evaluate growth disorder (“Modern Bone Histomorphometry”, 2014, WENET, Inc.).
as §13

[8] = Compression mechanical test of lumber vertebral body and distal femur metaphysis, growing healthy rats; details: age of 12 weeks, vs. Ct1 group
Procedure: as §1, §2, §3
The second, third, fourth and sixth lumber vertebral bodies and the distal metaphysis of the left femur were subjected to a compression test, and the ultimate load (maximum load endured before fracture), stiffness (resistance to deformation) and toughness (energy required before fracture) were evaluated.

serum osteocalcin [9] = assay: Bone formation marker (serum osteocalcin) by ELISA, pediatric steroid-induced osteoporosis model rats; details: GC model rats, age of 12 weeks, vs. GC group
Procedure: as §8, §9
as §10, with “antibody. […]” for “antibody.”
(§14) Before the start of administration, and 6 weeks after administration and before euthanasia, blood was collected from the tail vein, and the values of a bone formation marker (serum osteocalcin) and a bone resorption marker (serum TRACP-5b) in the blood were measured by an ELISA method.

[10] = test system: growth cartilage and primary spongiosa region; assay: Micro-CT and histological evaluation of growth at the proximal tibia, pediatric steroid-induced osteoporosis model rats; details: GC model rats
Procedure: as §8, §9, §10, §3
For bone labeling, tetracycline was administered 5 days before euthanasia, and calcein was administered 2 days before euthanasia (at an interval of 3 days). The animals were killed 36 hours after calcein administration. […]
as §11
Non-decalcified hard tissue sample: a coronal section tissue of proximal left tibia ½ (length: about 1.5 cm) was used. […] The non-decalcified hard tissue sample was stained by Villanueva staining and was used for bright-field observation and fluorescent observation, and quantitative bone morphometry. […]
Regarding growth disorder, there was the possibility that administration over a period of 6 weeks would not cause a change leading to generation of a difference in femur length, and therefore the growth cartilage plate width and the longitudinal growth rate were histologically measured using the non-decalcified tissue and the decalcified tissue to evaluate growth disorder (“Modern Bone Histomorphometry”, 2014, WENET, Inc.).
In FIG. 10-1(B), the part labeled in parallel to the growth cartilage and at a distal position represents the region labeled 2 days before euthanasia (white lower arrow), and the part labeled in parallel and at a further distal position represents the region labeled 5 days before euthanasia (white upper arrowhead). The bone growth rate was evaluated on the basis of the distance between the two labeled regions.

[11] = Compression test of the distal femur end, pediatric steroid-induced osteoporosis model rats; details: GC model rats, age of 12 weeks, vs. GC group
Procedure: as §8, §9, §10
(§15) 6 weeks after the start of administration (age of 6 weeks to age of 12 weeks). After the end of the period (age of 12 weeks), the animals were euthanized, and evaluation was performed. […]

serum osteocalcin [12] = assay: Bone formation marker (serum osteocalcin) by ELISA, growing healthy rats; details: age of 12 weeks, vs. Ct1 group
Procedure: as §1, §2, §3, §7

osteoclasts [13] = assay: TRACP staining of osteoclasts in the primary spongiosa region, pediatric steroid-induced osteoporosis model rats; details: GC model rats, proximal tibia, age of 12 weeks, vs. GC group (ALN also vs. Sham group)
Procedure: as §8, §9, §10, §15

serum TRACP-5b [14] = assay: Bone resorption marker (serum TRACP-5b) by ELISA, pediatric steroid-induced osteoporosis model rats; details: after 6 weeks (age of 12 weeks)
Procedure: as §8, §9
as §10, with “antibody. […]” for “antibody.”
as §14

[15] = Confirmation of the prednisolone pellet model of pediatric steroid-induced osteoporosis; details: 2, 4 and 6 weeks after implantation of Prednisolone 25 mg/pellet/60 days
Procedure: as §9
Prednisolone 25 mg/pellet/60 days is administered at a dose of 0.42 mg a day. This dose is equivalent to 3.5 mg/kg/day for a 6-week-old rat (body weight: 120 g), and equivalent to 105 mg/day for a child having a body weight of 30 kg.

[16] = lumber vertebra, age of 12 weeks
[17] = age of 6 weeks to 12 weeks, vs. GC group
[18] = high-dosage administration group
[19] = proximal tibia, age of 12 weeks, vs. Ct1 group
[20] = distal femur metaphysis compression test
[21] = lumber vertebra compression test
[22] = proximal tibia, age of 12 weeks, vs. Sham, GC and GC+Siglec-15 Ab groups

For `NCCCC(O)(P(=O)(O)O)P(=O)(O)O` [ALN, Alendronate], which femur length [1] is on record?
The femur length was “decreased”.

What about the head trunk length [1] of the same molecule?
Its head trunk length is “decreased”.

And the “BMD value (DXA)” value ([2]; distal femur, age of 12 weeks)?
The value was “increased depending on the dosage”.

And the “trabecular bone mass (3D-CT)” value ([2]; distal femur, age of 12 weeks)?
Its value is “increased depending on the dosage”.

And the “bone trabecular thickness (histological)” value ([2]; long bone, particularly high-dosage group)?
The value was “increased”.

And the “bone mass in the primary spongiosa (3D-CT)” value [2, 16]?
Its value is “particularly increased”.

What about the “BMD value (DXA)” value [2, 16] of the same molecule?
The value was “increased depending on the dosage”.

And the “trabecular bone mass (3D-CT)” value [2, 16]?
Its value is “increased depending on the dosage”.

And the “serum TRACP-5b level” value (serum TRACP-5b [3])?
The value was “decreased depending on the dosage”.

What about the “amount of change in body weight” value [4, 17] of the same molecule?
Its value is “no significant difference”.

What about the “amount of change in femur length” value [4, 17] of the same molecule?
Its value is “no significant difference”.

What about the “amount of change in head trunk length” value [4, 17] of the same molecule?
Its value is “no significant difference”.

What about the femur length [4, 18] of the same molecule?
The femur length was “tended to decrease”.

And the head trunk length [4, 18]?
Its head trunk length is “tended to decrease”.

And the “BMD of the distal femur (DXA)” value ([5]; vs. GC group)?
The value was “increased in a dosage-dependent manner”.

And the “bone mass (3D-CT), region immediately above the growth plate to the proximal femur” value ([5]; distal femur metaphysis)?
Its value is “increased in a dosage-dependent manner”.

And the “bone mass (BV/TV)” value ([5]; secondary spongiosa region of distal femur, vs. GC group, ALN high dosage)?
Its value is “significantly increased”.

What about the “number of TRACP positive cells in the secondary spongiosa region” value (osteoclasts [6]; lumber vertebra) of the same molecule?
The value was “decreased”.

What about the “number of TRACP positive cells in primary spongiosa region” value (osteoclasts [6]; proximal tibia) of the same molecule?
The value was “evidently decreased”.

What about the “number of TRACP positive cells in secondary spongiosa region” value (osteoclasts [6]; proximal tibia) of the same molecule?
The value was “decreased”.

And the “growth cartilage plate width (3D-CT image)” value ([7]; age of 12 weeks, ALN particularly high dosage)?
The value was “decreased”.

What about the “shape of the proximal tibia in 3D-CT images” value ([7]; age of 12 weeks, vs. Ct1 group, ALN particularly high dosage) of the same molecule?
The value was “cup-like shape”.

What about the “arrangement of safranine O staining positive growth cartilage regions” value ([7]; proximal tibia, age of 12 weeks) of the same molecule?
Its value is “disordered arrangement”.

And the “growth cartilage width (tissue sample)” value [7, 19]?
The value was “decreased; also recorded: significantly inferior”.

And the “safranine O staining positive regions in the bone in the primary spongiosa region” value [7, 19]?
The value was “expanded”.

What about the bone growth rate ([7]; proximal tibia, calcein labeling 7 and 3 days before euthanasia, vs. Ct1 group) of the same molecule?
The bone growth rate was “low bone growth rate; also recorded: significantly inferior”.

What about the stiffness [8, 20] of the same molecule?
Its stiffness is “increased in a dosage-dependent manner”.

What about the toughness [8, 20] of the same molecule?
The toughness was “increased in a dosage-dependent manner”.

And the ultimate load [8, 20]?
The ultimate load was “increased in a dosage-dependent manner”.

What about the stiffness [8, 21] of the same molecule?
Its stiffness is “significantly increased”.

And the ultimate load [8, 21]?
The ultimate load was “significantly increased”.

And the serum osteocalcin level (serum osteocalcin [9])?
Its serum osteocalcin level is “not significantly different”.

What about the “shape of the proximal tibia in 3D-CT images” value ([10]; age of 12 weeks, vs. Sham group, ALN high dosage) of the same molecule?
Its value is “cup-like (cupping) shape”.

And the growth cartilage width [10, 22]?
The growth cartilage width was “tended to slightly decrease, but was not statistically significantly different”.

And the “safranine O staining positive regions (cartilage matrix) in the bone in the primary spongiosa region” value [10, 22]?
The value was “more safranine O staining positive (red) regions”.

What about the bone growth rate ([10]; proximal tibia, tetracycline/calcein labeling, among Sham, GC and treated groups) of the same molecule?
Its bone growth rate is “no significant difference”.

And the maximum stress [11]?
The maximum stress was “tended to increase, and were not significantly different”.

What about the toughness [11] of the same molecule?
The toughness was “tended to increase, and were not significantly different”.

And the serum osteocalcin level (serum osteocalcin [12])?
The serum osteocalcin level was “not significantly different”.

What about the “number of TRACP positive cells in the primary spongiosa region” value (osteoclasts [13]) of the same molecule?
The value was “significantly decreased”.

What about the “serum TRACP-5b level” value (serum TRACP-5b [14]; GC model rats, in contrast to GC group) of the same molecule?
The value was “significantly decreased”.

Which “maximum stress of the femur” value [15] does the source give for `C[C@]12C=CC(=O)C=C1CC[C@@H]1[C@@H]2[C@@H](O)C[C@@]2(C)[C@H]1CC[C@]2(O)C(=O)CO` [prednisolone, Prednisolone] here?
The value was “decreased”.

What about the “maximum stress of the lumber vertebra” value [15] of the same molecule?
Its value is “decreased”.

What about the “femur BMD” value ([15]; 6-week-old female rat) of the same molecule?
The value was “decreased”.

What about the “increase of the level of TRACP-5b” value (serum TRACP-5b [14]; GC group (prednisolone pellet + vehicle)) of the same molecule?
Its value is 75%.
